In US10040781B2, “Tank-binding kinase inhibitor compounds” (Gilead Sciences, Inc., priority 2014, dated 2018):
pIC50: −log10 of the molar value. Read-outs that look alike come from different tables or passages of the source.

Assays:
hJAK2 = hJAK2 (Homo sapiens (Human), UniProt O60674); assay: hJAK2 LANCE TR-FRET enzymatic assay; assay type: biochemical; conditions: read-out: JAK2 IC50
IKKε = IKKε (Homo sapiens (Human), UniProt Q14164); assay: IKKε TR-FRET enzymatic assay; assay type: biochemical; conditions: read-out: IKKe IC50
IKKε, sequence (Q14164 whole entry): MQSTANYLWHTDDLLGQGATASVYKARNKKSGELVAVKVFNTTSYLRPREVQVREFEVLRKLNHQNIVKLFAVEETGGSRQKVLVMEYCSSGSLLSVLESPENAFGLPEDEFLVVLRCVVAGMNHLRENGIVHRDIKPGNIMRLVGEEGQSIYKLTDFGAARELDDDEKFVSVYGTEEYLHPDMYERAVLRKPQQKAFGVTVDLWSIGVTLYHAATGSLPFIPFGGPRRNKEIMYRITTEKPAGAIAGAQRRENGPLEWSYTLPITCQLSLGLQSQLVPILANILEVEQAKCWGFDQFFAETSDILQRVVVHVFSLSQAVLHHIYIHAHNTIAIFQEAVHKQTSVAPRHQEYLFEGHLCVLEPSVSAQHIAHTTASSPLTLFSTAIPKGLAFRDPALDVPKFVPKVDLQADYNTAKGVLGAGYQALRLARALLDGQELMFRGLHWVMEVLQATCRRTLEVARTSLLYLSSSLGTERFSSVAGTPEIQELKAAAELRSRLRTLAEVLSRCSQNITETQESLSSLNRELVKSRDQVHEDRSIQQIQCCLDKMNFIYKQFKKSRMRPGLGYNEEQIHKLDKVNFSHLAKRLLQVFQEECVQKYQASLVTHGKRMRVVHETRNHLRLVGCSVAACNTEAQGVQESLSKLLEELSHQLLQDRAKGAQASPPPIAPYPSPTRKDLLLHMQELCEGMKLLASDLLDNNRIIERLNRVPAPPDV

TBK1 = TBK1 (Homo sapiens (Human), UniProt Q9UHD2); assay: TBK1 TR-FRET enzymatic assay;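 further: phosphorylation of a biotinylated Ser/Thr peptide by purified full-length recombinant TBK1, read by TR-FRET after 240 min at 25 °C, IC50 is the geometric mean of at least four runs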
TBK1, sequence (Q9UHD2 whole entry): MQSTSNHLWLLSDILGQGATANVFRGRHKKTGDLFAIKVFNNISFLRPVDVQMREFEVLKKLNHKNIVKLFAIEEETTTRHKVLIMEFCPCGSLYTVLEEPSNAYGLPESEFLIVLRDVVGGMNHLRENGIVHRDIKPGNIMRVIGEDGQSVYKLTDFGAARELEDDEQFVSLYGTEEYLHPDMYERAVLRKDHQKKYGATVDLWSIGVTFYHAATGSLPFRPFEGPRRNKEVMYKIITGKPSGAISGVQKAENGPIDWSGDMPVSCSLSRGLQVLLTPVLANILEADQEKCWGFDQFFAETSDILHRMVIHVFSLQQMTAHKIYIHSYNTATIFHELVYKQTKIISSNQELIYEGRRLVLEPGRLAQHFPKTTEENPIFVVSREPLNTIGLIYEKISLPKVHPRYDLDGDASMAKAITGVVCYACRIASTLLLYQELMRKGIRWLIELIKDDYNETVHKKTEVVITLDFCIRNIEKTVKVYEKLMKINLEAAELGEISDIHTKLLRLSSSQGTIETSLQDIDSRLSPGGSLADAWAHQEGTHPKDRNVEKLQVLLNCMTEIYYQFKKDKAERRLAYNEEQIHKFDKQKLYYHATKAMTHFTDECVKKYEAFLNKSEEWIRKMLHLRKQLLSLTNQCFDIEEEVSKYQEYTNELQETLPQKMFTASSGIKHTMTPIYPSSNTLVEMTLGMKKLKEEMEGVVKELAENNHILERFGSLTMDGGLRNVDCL

[1] = TR-FRET, 2×Km ATP, geometric mean of minimum four determinations

hJAK2, sequence (O60674 whole entry): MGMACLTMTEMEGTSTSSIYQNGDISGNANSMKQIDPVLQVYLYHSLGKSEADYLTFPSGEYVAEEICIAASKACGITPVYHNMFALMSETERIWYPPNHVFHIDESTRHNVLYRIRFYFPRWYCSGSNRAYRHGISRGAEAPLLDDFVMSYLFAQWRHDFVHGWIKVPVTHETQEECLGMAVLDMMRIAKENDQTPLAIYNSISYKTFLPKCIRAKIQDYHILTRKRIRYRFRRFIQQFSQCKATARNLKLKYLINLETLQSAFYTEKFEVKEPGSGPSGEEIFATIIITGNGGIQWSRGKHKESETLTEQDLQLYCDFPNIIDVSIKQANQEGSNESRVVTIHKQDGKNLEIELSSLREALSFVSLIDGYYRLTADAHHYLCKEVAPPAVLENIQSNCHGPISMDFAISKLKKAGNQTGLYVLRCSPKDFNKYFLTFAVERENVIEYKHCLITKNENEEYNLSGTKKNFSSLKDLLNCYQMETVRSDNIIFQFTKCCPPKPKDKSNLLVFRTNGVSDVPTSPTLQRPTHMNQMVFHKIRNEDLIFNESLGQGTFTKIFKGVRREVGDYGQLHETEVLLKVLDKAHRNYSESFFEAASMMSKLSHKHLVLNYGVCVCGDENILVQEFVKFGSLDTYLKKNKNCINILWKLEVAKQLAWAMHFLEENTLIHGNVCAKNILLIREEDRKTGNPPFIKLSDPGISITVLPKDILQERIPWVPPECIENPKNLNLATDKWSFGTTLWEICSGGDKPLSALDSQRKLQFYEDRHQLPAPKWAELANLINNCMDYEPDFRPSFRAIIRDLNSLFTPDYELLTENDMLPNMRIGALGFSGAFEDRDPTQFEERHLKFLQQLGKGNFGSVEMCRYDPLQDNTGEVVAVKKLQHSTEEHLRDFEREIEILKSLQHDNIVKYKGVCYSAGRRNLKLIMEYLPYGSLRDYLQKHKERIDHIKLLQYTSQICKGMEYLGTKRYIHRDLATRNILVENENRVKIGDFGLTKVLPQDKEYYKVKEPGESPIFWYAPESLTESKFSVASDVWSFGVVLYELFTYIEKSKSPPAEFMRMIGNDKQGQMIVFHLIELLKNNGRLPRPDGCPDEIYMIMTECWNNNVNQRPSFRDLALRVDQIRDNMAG

| SMILES | pIC50 (hJAK2) | pIC50 (IKKε) | pIC50 (TBK1) | pIC50 (IKKε; [1]) |
| --- | --- | --- | --- | --- |
| N#Cc1cc(-c2ncnc(Nc3ccc(N4CCN(C5COC5)CC4)cc3)n2)ccc1OC1CCNCC1(F)F (racemic) [Example 148, 2-((3,3-difluoropiperidin-4-yl)oxy)-5-(4-((4-(4-(oxetan-3-yl)piperazin-1-yl)phenyl)amino)-1,3,5-triazin-2-yl)benzonitrile] | 6.62 | 7.64 | 8.52 |  |
| N#Cc1cc(-c2ncnc(Nc3cnn(C4CCNCC4)c3)n2)ccc1O[C@H]1CCCC[C@H]1F (racemic) [Example 295, rac-2-(((1S,2R)-2-fluorocyclohexyl)oxy)-5-(4-((1-(piperidin-4-yl)-1H-pyrazol-4-yl)amino)-1,3,5-triazin-2-yl)benzonitrile] | 6.81 | 8.22 | 7.62 |  |
| C[C@H](O)C(=O)N1CC[C@H](Oc2ccc(-c3ncnc(Nc4ccc(N5CCN(C6COC6)CC5)cc4)n3)cc2C#N)C(F)(F)C1 (single isomer, unassigned) [Example 155] | 6.70 | 9.00 |  |  |
| N#Cc1cc(-c2ncnc(Nc3ccc(N4CCN(C5COC5)CC4)cc3)n2)ccc1O[C@H]1CCN(C(=O)[C@@H]2CCCN2)C[C@H]1F [Example 133, 2-(((3R,4S)-3-fluoro-1-((S)-pyrrolidine-2-carbonyl)piperidin-4-yl)oxy)-5-(4-((4-(4-(oxetan-3-yl)piperazin-1-yl)phenyl)amino)-1,3,5-triazin-2-yl)benzonitrile] | ≤ 6.00 | ≤ 6.00 |  |  |
| C[C@H](O)C(=O)N1CC[C@H](Oc2ccc(-c3ncnc(Nc4ccc(N5CCC(C)(O)CC5)cc4)n3)cc2C#N)[C@H](F)C1 [Example 355, 2-(((3R,4S)-3-fluoro-1-((S)-2-hydroxypropanoyl)piperidin-4-yl)oxy)-5-(4-((4-(4-hydroxy-4-methylpiperidin-1-yl)phenyl)amino)-1,3,5-triazin-2-yl)benzonitrile] |  | 8.70 | 8.40 |  |
| N#Cc1cc(-c2ncnc(Nc3ccc(N4CCN(C5COC5)CC4)cc3)n2)ccc1O[C@H]1CCN(C(=O)Cn2cnnc2)C[C@H]1F [Example 377, 2-(((3R,4S)-1-(2-(4H-1,2,4-triazol-4-yl)acetyl)-3-fluoropiperidin-4-yl)oxy)-5-(4-((4-(4-(oxetan-3-yl)piperazin-1-yl)phenyl)amino)-1,3,5-triazin-2-yl)benzonitrile] |  | 6.89 | 7.43 |  |
| C[C@H](O)C(=O)N1CC[C@H](Oc2ccc(-c3ncnc(Nc4ccc(N5CCOC[C@@H]5CO)cc4)n3)cc2C#N)[C@H](F)C1 [Example 387, 2-(((3R,4S)-3-fluoro-1-((S)-2-hydroxypropanoyl)piperidin-4-yl)oxy)-5-(4-((4-((S)-3-(hydroxymethyl)morpholino)phenyl)amino)-1,3,5-triazin-2-yl)benzonitrile] |  | 8.70 | 8.52 |  |
| N#Cc1cc(-c2ncnc(Nc3ccc(N4CCN(C5COC5)CC4)c(F)c3)n2)ccc1O[C@H]1CCN(C(=O)[C@@H](O)CO)C[C@H]1F [Example 409, 2-(((3R,4S)-1-((S)-2,3-dihydroxypropanoyl)-3-fluoropiperidin-4-yl)oxy)-5-(4-((3-fluoro-4-(4-(oxetan-3-yl)piperazin-1-yl)phenyl)amino)-1,3,5-triazin-2-yl)benzonitrile] |  |  | 8.70 | 9.00 |
| C[C@H]1C[C@H](Oc2ccc(-c3ncnc(Nc4ccc(N5CCN(C6COC6)CC5)cc4)n3)cc2C#N)[C@H](F)CN1C(=O)[C@H]1CCC(=O)N1 [Example 411, 2-(((2S,4S,5R)-5-fluoro-2-methyl-1-((R)-5-oxopyrrolidine-2-carbonyl)piperidin-4-yl)oxy)-5-(4-((4-(4-(oxetan-3-yl)piperazin-1-yl)phenyl)amino)-1,3,5-triazin-2-yl)benzonitrile] |  |  | 6.27 | ≤ 6.00 |
| C[C@H]1C[C@H](Oc2ccc(-c3ncnc(Nc4ccc(N5CCN(C6COC6)CC5)cc4)n3)cc2C#N)[C@H](F)CN1C(=O)[C@@H]1CCC(=O)N1 [Example 416, 2-(((2S,4S,5R)-5-fluoro-2-methyl-1-((S)-5-oxopyrrolidine-2-carbonyl)piperidin-4-yl)oxy)-5-(4-((4-(4-(oxetan-3-yl)piperazin-1-yl)phenyl)amino)-1,3,5-triazin-2-yl)benzonitrile] |  |  | 7.19 | 6.91 |
| N#Cc1cc(-c2ncnc(Nc3ccc(N4CCN(C5COC5)CC4)cc3)n2)ccc1O[C@H]1CCN(Cc2nc(=O)[nH][nH]2)C[C@H]1F [Example 436, 2-(((3R,4S)-3-fluoro-1-((5-oxo-2,5-dihydro-1H-1,2,4-triazol-3-yl)methyl)piperidin-4-yl)oxy)-5-(4-((4-(4-(oxetan-3-yl)piperazin-1-yl)phenyl)amino)-1,3,5-triazin-2-yl)benzonitrile] | 6.81 |  |  | 7.00 |
| N#Cc1cc(-c2ncnc(Nc3ccc(N4CCN(C5COC5)CC4)cc3)n2)ccc1O[C@H]1CCN(C(=O)c2nc(=O)[nH][nH]2)C[C@H]1F [Example 437, 2-(((3R,4S)-3-fluoro-1-(5-oxo-2,5-dihydro-1H-1,2,4-triazole-3-carbonyl)piperidin-4-yl)oxy)-5-(4-((4-(4-(oxetan-3-yl)piperazin-1-yl)phenyl)amino)-1,3,5-triazin-2-yl)benzonitrile] |  |  | 8.40 | 8.70 |
| N#Cc1cc(-c2ncnc(Nc3cnn(C(F)F)c3)n2)ccc1O[C@H]1CCN(C(=O)[C@@H](O)CO)C[C@H]1F [Example 456] |  |  | 8.40 | 8.15 |
| C[C@H](O)C(=O)N1CC[C@H](Oc2ccc(-c3ncnc(Nc4cnn(C(F)F)c4)n3)cc2C#N)[C@H](F)C1 [Example 457, 5-(4-((1-(difluoromethyl)-1H-pyrazol-4-yl)amino)-1,3,5-triazin-2-yl)-2-(((3R,4S)-3-fluoro-1-((S)-2-hydroxypropanoyl)piperidin-4-yl)oxy)benzonitrile] |  |  | 7.89 | 7.70 |
| N#Cc1cc(-c2ncnc(Nc3ccc(N4CCN5CCOC[C@H]5C4)cc3)n2)ccc1O[C@H]1CCN(C(=O)[C@@H]2CCC(=O)N2)C[C@H]1F [Example 466, 2-(((3R,4S)-3-fluoro-1-((S)-5-oxopyrrolidine-2-carbonyl)piperidin-4-yl)oxy)-5-(4-((4-((R)-hexahydropyrazino[2,1-c][1,4]oxazin-8(1H)-yl)phenyl)amino)-1,3,5-triazin-2-yl)benzonitrile] |  |  | 8.40 | 8.30 |
| Cc1cc(Nc2ncnc(-c3ccc(O[C@@H]4CCC(=O)NC4)c(C#N)c3)n2)ccc1N1CCN(C2COC2)CC1 [Example 532, (R)-5-(4-((3-methyl-4-(4-(oxetan-3-yl)piperazin-1-yl)phenyl)amino)-1,3,5-triazin-2-yl)-2-((6-oxopiperidin-3-yl)oxy)benzonitrile] |  |  | 8.52 | 8.70 |
| COc1cc(Nc2ncnc(-c3ccc(O[C@H]4CCN(C(=O)[C@@H](O)CO)CC4(F)F)c(C#N)c3)n2)ccc1N1CCN(C2COC2)CC1 [Example 577, 2-(((S)-1-((S)-2,3-dihydroxypropanoyl)-3,3-difluoropiperidin-4-yl)oxy)-5-(4-((3-methoxy-4-(4-(oxetan-3-yl)piperazin-1-yl)phenyl)amino)-1,3,5-triazin-2-yl)benzonitrile] |  |  | 8.70 | 9.00 |
| N#Cc1cc(-c2ncnc(Nc3ccc(N4CCN(C5COC5)CC4)cc3)n2)ccc1OCC1(C(N)=O)CC1 [Example 605, 1-((2-cyano-4-(4-((4-(4-(oxetan-3-yl)piperazin-1-yl)phenyl)amino)-1,3,5-triazin-2-yl)phenoxy)methyl)-cyclopropanecarbox-amide] |  | 7.70 | 7.92 |  |
